From patent EP4624465A1, “COMPOUND SERVING AS DDR1 KINASE INHIBITOR, AND MEDICINE” (Nippon Shinyaku Co., Ltd., priority 2022, dated 2024)
Structures can show the parent of a compound that is named as a salt.

Assays:
DDR1 kinase [1] = molecular target: T1, DDR1 kinase (Homo sapiens, UniProt Q08345); assay: Evaluation of DDR1 kinase inhibition (LANCE Ultra TR-FRET kinase assay); format: biochemical; parameters: purchased Carna Biosciences 08-113; conditions: DDR1 protein 0.5 nM, LANCE Ultra ULight-poly GAT substrate, 2 hours at room temperature, duplicate; read-out: DDR-1 IC50
Target sequence in this assay (Q08345 19-876 isoform Q08345-2 limits assumed): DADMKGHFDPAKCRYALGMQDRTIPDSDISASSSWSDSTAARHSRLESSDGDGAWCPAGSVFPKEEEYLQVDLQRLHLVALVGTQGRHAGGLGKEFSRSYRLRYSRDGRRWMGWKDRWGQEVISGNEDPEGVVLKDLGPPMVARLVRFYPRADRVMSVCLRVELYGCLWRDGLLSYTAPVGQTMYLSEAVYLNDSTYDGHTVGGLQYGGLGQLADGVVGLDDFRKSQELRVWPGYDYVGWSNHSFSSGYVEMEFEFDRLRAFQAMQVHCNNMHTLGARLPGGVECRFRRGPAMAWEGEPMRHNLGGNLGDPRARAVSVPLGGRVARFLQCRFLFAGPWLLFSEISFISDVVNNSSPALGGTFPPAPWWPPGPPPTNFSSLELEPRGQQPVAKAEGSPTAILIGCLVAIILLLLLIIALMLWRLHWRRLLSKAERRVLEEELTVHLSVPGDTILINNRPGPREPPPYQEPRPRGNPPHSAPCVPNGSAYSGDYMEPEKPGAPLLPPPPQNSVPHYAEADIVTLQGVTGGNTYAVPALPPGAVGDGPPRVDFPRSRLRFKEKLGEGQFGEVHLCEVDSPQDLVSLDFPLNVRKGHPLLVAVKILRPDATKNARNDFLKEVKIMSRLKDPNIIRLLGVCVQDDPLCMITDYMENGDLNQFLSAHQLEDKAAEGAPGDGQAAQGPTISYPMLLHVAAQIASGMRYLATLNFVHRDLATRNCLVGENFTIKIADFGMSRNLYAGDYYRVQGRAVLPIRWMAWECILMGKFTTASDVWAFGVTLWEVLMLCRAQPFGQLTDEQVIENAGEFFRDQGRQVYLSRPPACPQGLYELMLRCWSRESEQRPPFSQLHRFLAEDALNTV

DDR1 kinase [2] = molecular target: T1, DDR1 kinase; assay: Evaluation of DDR1 kinase inhibition in DDR1-expressing U2OS cells (type I collagen stimulation, PathHunter detection); format: cell-based; parameters: host or cells: U2OS; conditions: type I collagen 50 µg/mL stimulation, duplicate, read-out: DDR-1 IC50
Target sequence in this assay (Q08345 19-913): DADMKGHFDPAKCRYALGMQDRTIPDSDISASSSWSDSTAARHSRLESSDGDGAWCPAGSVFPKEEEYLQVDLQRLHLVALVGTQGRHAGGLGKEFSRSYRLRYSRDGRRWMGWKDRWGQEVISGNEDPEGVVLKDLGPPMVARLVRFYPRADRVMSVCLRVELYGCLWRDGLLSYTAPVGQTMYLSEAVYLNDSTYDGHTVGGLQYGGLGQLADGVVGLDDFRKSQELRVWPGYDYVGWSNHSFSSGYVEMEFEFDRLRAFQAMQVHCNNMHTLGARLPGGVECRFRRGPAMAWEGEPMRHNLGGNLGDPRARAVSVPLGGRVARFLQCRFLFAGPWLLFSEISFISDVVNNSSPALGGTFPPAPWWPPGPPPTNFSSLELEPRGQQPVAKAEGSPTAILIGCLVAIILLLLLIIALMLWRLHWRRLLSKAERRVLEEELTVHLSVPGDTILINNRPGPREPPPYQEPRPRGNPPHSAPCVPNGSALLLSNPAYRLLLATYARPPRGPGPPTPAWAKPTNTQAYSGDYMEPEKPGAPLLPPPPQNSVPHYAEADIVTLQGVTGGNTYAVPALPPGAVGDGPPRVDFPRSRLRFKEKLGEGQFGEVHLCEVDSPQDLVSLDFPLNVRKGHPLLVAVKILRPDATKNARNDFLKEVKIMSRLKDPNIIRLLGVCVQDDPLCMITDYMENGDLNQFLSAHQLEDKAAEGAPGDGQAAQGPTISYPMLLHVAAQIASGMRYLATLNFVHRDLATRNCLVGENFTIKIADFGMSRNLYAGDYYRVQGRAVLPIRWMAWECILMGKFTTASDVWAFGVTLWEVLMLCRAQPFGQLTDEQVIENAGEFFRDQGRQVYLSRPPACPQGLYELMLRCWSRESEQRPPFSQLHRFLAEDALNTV

| IC50 (DDR1 kinase [1]) [nM] | IC50 (DDR1 kinase [2]) [nM] | SMILES |
| --- | --- | --- |
| 2.8 | 43 | Nc1nccc(C(=O)N2CC(c3nn(CC(=O)N4CCC[C@H]4C(F)(F)F)c4ccccc34)C2)c1F [Compound E-196, 2-{3-[1-(2-amino-3-fluoropyridine-4-carbonyl)azetidin-3-yl]-1H-indazol-1-yl}-1-[(28)-2-(trifluoromethyl)pyrrolidin-1-yl]ethan-1-one] |
| 0.4 | 78 | O=C(Cn1nc(C2CN(C(=O)c3ccnc(NC4CC4)c3)C2)c2c(Cl)c(F)ccc21)NCC(F)(F)F [Compound E-1, 2-(4-chloro-3-{1-[2-(cycloropylamino)pyridine-4-carbonyl]azetidin-3-yl}-5-fluoro-1H-indazol-1-yl)-N-(2,2,2-trifluoroethyl)acetamide hydrochloride] |
| 2 | 17 | CN(C(=O)Cn1nc(C2CN(C(=O)c3cc(N)ncc3F)C2)c2ccccc21)C1CC(F)(F)C1 [Compound E-250, 2-{3-[1-(2-amino-5-fluoropyridine-4-carbonyl)azetidin-3-yl]-1H-indazol-1-yl}-N-(3,3-difluorocyclobutyl)-N-methylacetamide] |
| 10 | 380 | Nc1cc(C(=O)N2CC(c3nn(CC(=O)NC4CC(F)(F)C4)c4ccccc34)C2)ccn1 [Compound E-214, 2-{3-[1-(2-aminopyridine-4-carbonyl)azetidin-3-yl]-1H-indazol-1-yl}-N-(3,3-difluorocyclobutyl)acetamide] |
| 1.4 | 3 | Nc1cc(C(=O)N2CC(c3nn(CC(=O)N4CCC[C@H]4C(F)F)c4ccccc34)C2)c(F)cn1 [Compound E-272, 2-{3-[1-(2-amino-5-fluoropyridine-4-carbonyl)azetidin-3-yl]-1H-indazol-1-yl}-1-[(2S)-2-(difluoromethyl)pyrrolidin-1-yl]ethan-1-one] |
| 4.6 | 6 | C[C@H](N(C)C(=O)Cn1nc(C2CN(C(=O)c3cc(N)ncc3F)C2)c2ccccc21)C(F)(F)F [Compound E-261, 2-{3-[1-(2-amino-5-fluoropyridine-4-carbonyl)azetidin-3-yl]-1H-indazol-1-yl}-N-methyl-N-[(2S)-1,1,1-trifluoropropan-2-yl]acetamide] |
| 25 | 470 | Nc1cc(C(=O)N2CC(c3nn(Cc4cccc(C(F)(F)F)c4)c4cccc(F)c34)C2)ccn1 [Compound E-113, 4-[3-(4-fluoro-1-{[3-(trifluoromethyl)phenyllmethyl}-1H-indazol-3-yl)azetidine-1-carbonyl]pyridin-2-amine hydrochloride] |
| 21 | 270 | O=C(c1cnc2ccccn12)N1CC(c2nn(CC(=O)N3CCC[C@H]3C(F)(F)F)c3cc(F)cc(F)c23)C1 [Compound E-101] |
| 11 | 510 | Nc1cc(C(=O)N2CC(c3nn(CC(=O)NC4CC4(F)F)c4ccccc34)C2)c(F)cn1 (centres unmarked) [Compound E-248, 2-{3-[1-(2-amino-5-fluoropyridine-4-carbonyl)azetidin-3-yl]-1H-indazol-1-yl}-N-(2,2-difluorocyclopropyl)acetamide] |
| 0.8 | 130 | Nc1cc(C(=O)N2CC(c3nn(CC(=O)N4CCO[C@H](C(F)(F)F)C4)c4cc(F)cc(F)c34)C2)ccn1 [Compound E-82, 2-{3-[1-(2-aminopyridine-4-carbonyl)azetidin-3-yl]-4,6-difluoro-1H-indazol-1-yl}-1-[(2S)-2-(trifluoromethyl)morpholin-4-yl]ethan-1-one] |
| 21 | 1400 | O=C(c1ccnc(NC2CCOCC2)c1)N1CC(c2nn(CC(=O)N3CCC[C@H]3C(F)(F)F)c3cc(F)cc(F)c23)C1 [Compound E-88, 2-[4,6-difluoro-3-(1-{2-[(oxan-4-yl)amino]pyridine-4-carbonyl}azetidin-3-yl)-1H-indazol-1-yl]-1-[(2S)-2-(trifluoromethyl)pyrrolidin-1-yl]ethan-1-one] |
| 100 | 1300 | Nc1cc(C(=O)N2CC(c3nn(CC(=O)N4CCCC4)c4cc(F)cc(F)c34)C2)ccn1 [Compound E-76, 2-{3-[1-(2-aminopyridine-4-carbonyl)azetidin-3-yl]-4,6-difluoro-1H-indazol-1-yl}-1-(pyrrolidin-1-yl)ethan-1-one] |
| 21 | 390 | CN(C(=O)Cn1nc(C2CN(C(=O)c3cc(N)ncc3F)C2)c2ccccc21)C1COC1 [Compound E-254, 2-{3-{1-(2-amino-5-fluoropyridine-4-carbonyl)azetidin-3-yl]-1H-indazol-1-yl}-N-methyl-N-(oxetan-3-yl)acetamide] |
| 86 | 3700 | O=C(c1cnc(NC2CC2)s1)N1CC(c2nn(CC(=O)N3CCC[C@H]3C(F)(F)F)c3cc(F)cc(F)c23)C1 [Compound E-98, 2-(3-{1-[2-(cyclopropylamino)-1,3-thiazole-5-carbonyl]azetidin-3-yl]-4,6-difluoro-1H-indazol-1-yl)-1-[(2S)-2-(trifluoromethyl)pyrrolidin-1-yl]ethan-1-one] |
| 41 | 420 | N#CC1(NC(=O)Cn2nc(C3CN(C(=O)c4cc(N)ncc4F)C3)c3ccccc32)CC1 [Compound E-244, 2-{3-{1-(2-amino-5-fluoropyridine-4-carbonyl)azetidin-3-yl]-1H-indazol-1-yl}-N-(1-cyanocyclopropyl)acetamide] |
| 1 | 100 | Nc1cc(C(=O)N2CCC(c3cn(CC(=O)N4CCC[C@H]4C(F)(F)F)c4cccc(F)c34)CC2)ccn1 [Compound E-108, 2-{3-[1-(2-aminopyridine-4-carbonyp)piperidin-4-yl]-4-fluoro-1H-indol-1-yl}-1-[(2S)-2-(trifluoromethyl)pyrrolidin-1-yl]ethan-1-one] |
| 4.8 | 38 | CN(CC(F)F)C(=O)Cn1nc(C2CN(C(=O)c3cc(N)ncc3F)C2)c2ccccc21 [Compound E-269, 2-{3-[1-(2-amino-5-fluoropyridine-4-carbonyl)azetidin-3-yl]-1H-indazol-1-yl}-N-(2,2-difluoroethyl)-N-methylacetamide] |
| 3.8 | 8 | O=C(Cn1nc(C2CN(C(=O)c3ccnc(NC4CCC4)c3)C2)c2c(F)cccc21)NCC(F)(F)F [Compound E-68, 2-(3-{1-[2-(cyclobutylamino)pyridine-4-carbonyl]azetidin-3-yl}-4-fluoro-1H-indazol-1-yl)-N-(2,2,2-trifluoroethyl)acetamide hydrochloride] |
| 5.2 | 180 | Cc1nc(N)sc1C(=O)N1CC(c2nn(CC(=O)N3CCC[C@H]3C(F)(F)F)c3cc(F)cc(F)c23)C1 [Compound E-106] |
| 71 | 1400 | Nc1cc(C(=O)N2CC(c3nn(Cc4cn(CC5CCC5)nn4)c4cccc(F)c34)C2)ccn1 [Compound E-92, 4-[3-(1-{[1-(cyclobutylmethyl)-1H-1,2,3-triazol-4-yl]methyl}-4-fluoro-1H-indazol-3-yl)azetidine-1-carbonyl]pyridin-2-amine hydrochloride] |
| 56 | 84 | Nc1cc(C(=O)N2CC(c3nn(Cc4cn(CC5CC(F)(F)C5)nn4)c4cccc(F)c34)C2)ccn1 [Compound E-19, 4-{3-[1-({1-[(3,3-difluorocyclobutyl)methyl]-1H-1,2,3-triazol-4-yl}methyl)-4-fluoro-1H-indazol-3-yl]azetidine-1-carbonyl}pyridin-2-amine hydrochloride] |
| 47 | 300 | Cn1nccc1NC(=O)Cn1nc(C2CN(C(=O)c3cc(N)ncc3F)C2)c2ccccc21 [Compound E-247, 2-{3-[1-(2-amino-5-fluoropyridine-4-carbonyl)azetidin-8-yl]-1H-indazol-1-yl}-N-(1-methyl-1H-pyrazol-5-yl)acetamide] |
| 4.8 | 370 | Nc1nccc(C(=O)N2CC(c3nn(CC(=O)N4CCO[C@@H](C(F)(F)F)C4)c4ccccc34)C2)c1F [Compound E-194, 2-{3-[1-(2-amino-3-fluoropyridine-4-carbonyl)azetidin-3-yl]-1H-indazol-1-y1}-1-[(2R)-2-(trifluoromethyl)morpholin-4-yl]ethan-1-one] |
| 5.7 | 69 | Nc1cc(C(=O)N2CC(c3nn(CC(=O)N4CCC[C@H]4C(F)(F)F)c4ccccc34)C2)ccn1 [Compound E-40, 2-{3-[1-(2-aminopyridine-4-carbonyl)azetidin-3-yl]-1H-indazol-1-yl}-1-[(2S)-2-(trifluoromethyl)pyrrolidin-1-yl]ethan-1-one] |
| 4.4 | 140 | CN(CC(F)(F)F)C(=O)Cn1nc(C2CN(C(=O)c3ccnc(N)c3)C2)c2ccccc21 [Compound E-45, 2-{3-[1-(2-aminopyridine-4-carbonyl)azetidin-3-yl]-1H-indazol-1-yl}-N-methyl-N-(2,2,2-trifluoroethyl)acetamide] |
| 4.1 | 74 | O=C(Cn1nc(C2CN(C(=O)c3ccnc(NC4CC4)c3)C2)c2c(F)cc(F)cc21)NCC(F)(F)F [Compound E-30, 2-(3-{1-[2-(cyclopropylamino)pyridine-4-carbonyl]azetidin-3-yl}-4,6-difluoro-1H-indazol-1-yl)-N-(2,2,2-trifluoroethyl)acetamide hydrochloride] |
| 4.8 | 21 | Nc1cc(C(=O)N2CC(c3nn(CC(=O)N4CCC[C@H]4C(F)(F)F)c4cc(F)ccc34)C2)c(F)cn1 [Compound E-275, 2-{3-[1-(2-amino-5-fluoropyridine-4-carbonyl)azetidin-3-yl]-6-fluoro-1H-indazol-1-yl}-1-[(2S)-2-(trifluoromethyl)pyrrolidin-1-yl]ethan-1-one] |
| 1.7 | 120 | Nc1cc(C(=O)N2CC(c3nn(CC(=O)NCC(F)(F)F)c4ccc(F)c(Br)c34)C2)ccn1 [Compound E-70, 2-{3-[1-(2-aminopyridine-4-carbonyl)azetidin-3-yl]-4-bromo-5-fluoro-1H-indazol-1-yl}-N-(2,2,2-trifluoroethyl)acetamide hydrochloride] |
